We go through 3 compounds from patent publication US4780476A, “Azoniaspironortropanol esters as asthma therapeutics and broncholytics” (Madaus GmbH & Co., priority 1985, dated 1988).

The subject of test [1] is awake guinea pig (cholinergically-induced bronchial cramps). As to the kind of experiment: inhalative provocation with acetyl-β-methylcholine chloride aerosol on awake guinea pigs (broncholytic/protective action). In kind it is in vivo. The settings on record: for EC50: Cavia porcellus, read-out: EC50, average effective concentration w of acetyl-β-methylcholine chloride (provocation substance) after pre-treatment; for probit analysis reaction % observed: animals reacting with dyspnoea; for probit analysis reaction % calculated: probit regression. As for the experimental part: animal strain: Pirbright white test substance: trospium chloride (MP 194) (M.W. 428) dosage: 3×10^-7 mole ml^-1 kg^-1 mode of administration: intraperitoneally test substance: dehydrotrospium chloride (WG 71) (M.W. 426) […]
reference substance: atropine hydrochloride (Serva; M.W. 325.8) […]
reference substance: isoproterenol (Fluka; M.W. 247.72) dosage: […]
further substances: acetyl-β-methylcholine chloride (Sigma; M.W. 195.7) mode of administration: 0.5 ml. min^-1 by inhalation.
The guinea pigs intended for an experiment are, after an acclimatization time of at least 8 days, subjected twice to an aerosol of 0.1% acetyl-β-methylcholine chloride solution since, as is known from experience, during the first two inhalative provocations, the animals react with more distinct respiratory disturbances than in the case of the subsequent provocations (adaptation). If, in the case of the two inhalation phases, a nonsensitivity (absence of respiratory disturbances) is observed towards the exposure, these animals are excluded from the actual experiment.
For the purpose of aerosol provocation, the guinea pigs are placed individually in an inhalation chamber (see Section 3.6 hereinafter) in which 0.5 ml. of solution per minute are atomized as droplet aerosol by means of a special nozzle (Rhema, Hofheim, Germany). […] With the help of a stopwatch, there is recorded the time from the commencement of inhalation to the appearance of the asphyctic state; the animals are immediately removed from the inhalation chamber and, as a rule, recover in a very short period of time (recovery of consciousness and normalization of breathing). If, within 180 seconds, no dysponea occurs, the inhalation is discontinued.
One aerosol concentration is tested per test day; the time between the individual aerosol provocations is at least 1 week.
The inhalation chamber is a Plexiglass container specially made for this purpose, the lid of which can be closed in an air-tight manner by means of rubber sealing and grip closure means. The internal measurements of the chamber are 285×190×180 mm., which corresponds to a volume of about 9.75 liters. The special nozzle (Rhema, Hofheim, Germany, order No. 504104) is fixed to a recess on the lid and ensures a uniform supply of the available chamber space with the aerosol. The provocation solution is supplied to the nozzle via an infusion pump (Braun, Melsungen, Germany) (0.5 ml./minute) and there atomized with a superpressure of 180 kPa from an attached pressure gas bottle (artificial air, KW-free). For reasons of safety, the aerosol provocation is carried out under a ventilator.
The EC50, as well as the related confidence interval (p>95%), are determined from the probit regression lines of the percentage values (v. supra) provided with weight coefficients after line adaptation by the "maximum likelihood" method (10 iterations). Furthermore, there is examined the adaptation of the lines to the observed data by means of the chiquadrat test. For the evaluation, a calculation programme is commercially available (Olivetti).

Test [2] concerns T1, isolated tracheal spirals of the guinea pig (Cavia porcellus).
T1 construct: the whole of the trachea is roughly freed beginning from the larynx up to the tracheal bifurcation, removed and transferred; from tissue; host or cells: isolated trachea (spiral strips) of male Pirbright white guinea pigs
As to the kind of experiment: anticholinergic effectiveness on isolated tracheal spirals (antagonism against acetyl-β-methylcholine chloride). Particulars: ratio of maximum agonist effect in presence (EAmB) and absence (EAm) of antagonist. The source says: (§1) A model for this is the measurement of the anticholinergic effectiveness on isolated tracheal spirals of the guinea pig.
(§2) The test substance used was 3α-benziloyloxynortropane-8-spiro-1'-pyrrolidinium chloride (trospium chloride; MP 194), ipratropium bromide being used as comparison substance.
(§3) There is to be determined the anticholinergic effectiveness of MP 194 in comparison with the reference substance ipratropium bromide on the isolated tracheal spirals of the guinea pig.
(§4) 3.1.1. animal species: guinea pig
(§5) 3.1.2. animal strain: Pirbright white
(§6) 3.3.1. test substance (test antagonist) trospium chloride (MP 194) (M.W. 428)
(§7) 3.3.2. reference substance (reference antagonist) ipratropium bromide (Atrovent) (M.W. 412.4)
(§8) 3.3.3.1. acetyl-β-methylcholine chloride (Sigma) (M.W. 195.7)
(§9) The guinea pig is stunned by a blow on the neck. Subsequently, the whole of the trachea is roughly freed beginning from the larynx up to the tracheal bifurcation, removed and transferred to tempered (37° C.) and carbogenized tyrode solution. After surrounding connective tissue has been removed as far as possible, the preparation is cut up spirally by means of fine scissors at an angle of about 45° and separated into two equal sized sections. After weighing, both preparations are provided proximally and distally with a silk thread. One thread serves for fixing the preparation by means of a loop to the bottom of the bath and the other is connected via a hook with the transducer above the bath vessel.
(§10) Subsequently, the preparations, corresponding to the calibration, are prestressed with about 80 mN and equilibrated from 50-100 minutes. During the equilibration phase, the nutrient solution in the bath vessels is renewed in 15 minute intervals. As soon as the resting muscle tonus of the preparation has stabilized, there takes place the cumulative addition of the agonist, whereby the addition of the next highest concentration first takes place when no further increase of contraction is recognisable (plateau). When the maximum contraction height of the preparation is achieved, the cumulative agonist addition is ended and the preparation is rinsed. After a further equilibration phase (v. supra), the cumulative addition of the agonist is repeated but this time in the presence of the test or reference antagonist.
(§11) 3.6.1. The perfusion part consists of an L-shaped organ bath in the hollow space of which (longer limb) runs a double glass spiral through which the nutrient solution is passed into the actual bath vessel (28 ml. content; shorter limb). This bath vessel is divided into two chambers which are, however, connected together by two transverse connections. […] The inlet chambers as well as the feeding glass spirals are tempered from the outside to 37° C. by a separate liquid circulation. This tempering takes place with the help of a "Colora" ultra-thermostat type K (Colora Messtechnik GmbH, Dusseldorf, Germany) which serves as thermostat and pump. In order, in case of need, always to have available ready-for-use nutrient solution, above the organ bath is provided a double-walled storage container in which the nutrient solution is also tempered and carbogenised. This is connected via a glass stopcock and a polypropylene tube with double glass spiral in the interior of the organ bath.
(§12) 3.6.2. The measurement and recording part includes a transducer (Statham-Universal-Zelle UC-2; Hugo Sachs Elektronic KG, Hugstetten, Germany). By means of a hanging-in weight, a force of 40 mN is produced on the transducer which passes as electrical signal via a connecting cable to a bridge amplifier. The amplification is smoothly so regulated that the force provided corresponds to a constant value on the scale or an analogous value on the millimeter paper of the recorder (dependent upon the amplification; see below). After fixing the organ, the preparation is prestressed to the doubled mark, corresponding to 80 mN. […]

The target in test [3] is T2, isolated tracheal spirals of the guinea pig (Cavia porcellus, UniProt H0W1Z3).
T2 construct: the whole of the trachea is roughly freed beginning from the larynx up to the tracheal bifurcation, removed and transferred; from tissue; host or cells: isolated trachea (spiral strips) of male Pirbright white guinea pigs
Described as above. The settings on record: for antagonism against acetyl-β-methylcholine chloride / anticholinergic effectiveness (in words): isolated guinea pig tracheal spirals.
Description: as §1, §2, §3, §4, §5, §6, §7, §8, §9, §10, §11, §12

The mark [4] stands for this setting: acetyl-β-methylcholine chloride w=0.001000, 10 tested (isoproterenol 9), pre-treatment 3×10^-7 mol ml^-1 kg^-1 i.p.
Where [5] appears, read: acetyl-β-methylcholine chloride w=0.001000, pre-treatment 3×10^-7 mol ml^-1 kg^-1 i.p.
[6] abbreviates: acetyl-β-methylcholine chloride w=0.001780, pre-treatment 3×10^-7 mol ml^-1 kg^-1 i.p.
Setting [7] is: acetyl-β-methylcholine chloride w=0.001780, trospium chloride 10 tested, dehydrotrospium chloride 9, atropine 9, isoproterenol 8, pre-treatment 3×10^-7 mol ml^-1 kg^-1 i.p.
[8] abbreviates: acetyl-β-methylcholine chloride w=0.003160, 10 tested (isoproterenol 9), pre-treatment 3×10^-7 mol ml^-1 kg^-1 i.p.
[9] abbreviates: acetyl-β-methylcholine chloride w=0.003160, pre-treatment 3×10^-7 mol ml^-1 kg^-1 i.p.
Setting [10] is: acetyl-β-methylcholine chloride w=0.005620, 10 tested (isoproterenol 9), pre-treatment 3×10^-7 mol ml^-1 kg^-1 i.p.
Setting [11] is: acetyl-β-methylcholine chloride w=0.005620, pre-treatment 3×10^-7 mol ml^-1 kg^-1 i.p.

Values after ≈ are worked out from the molar mass of the structure shown. Like-named read-outs stand apart in the source and are kept apart here.

T2 sequence (H0W1Z3 1-590): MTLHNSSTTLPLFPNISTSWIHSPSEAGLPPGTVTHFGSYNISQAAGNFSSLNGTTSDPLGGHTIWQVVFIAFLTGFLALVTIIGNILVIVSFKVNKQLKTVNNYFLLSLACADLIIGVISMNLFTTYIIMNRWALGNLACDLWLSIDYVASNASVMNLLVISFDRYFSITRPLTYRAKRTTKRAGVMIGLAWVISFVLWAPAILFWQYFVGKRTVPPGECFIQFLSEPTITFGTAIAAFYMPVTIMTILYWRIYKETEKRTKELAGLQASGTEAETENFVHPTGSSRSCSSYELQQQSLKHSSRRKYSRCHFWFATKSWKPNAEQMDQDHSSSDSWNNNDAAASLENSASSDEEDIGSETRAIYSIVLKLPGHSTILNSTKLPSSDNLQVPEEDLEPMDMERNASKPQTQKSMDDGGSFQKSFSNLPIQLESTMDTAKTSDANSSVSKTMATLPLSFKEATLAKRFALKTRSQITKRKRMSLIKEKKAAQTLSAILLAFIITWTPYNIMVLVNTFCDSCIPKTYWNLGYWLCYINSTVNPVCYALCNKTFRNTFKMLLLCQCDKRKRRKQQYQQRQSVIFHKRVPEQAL
T1 sequence (H0W1Z3 1-590): as above

`O=C(OC1CC2CCC(C1)[N+]21CC=CC1)C(O)(c1ccccc1)c1ccccc1` (stereo not drawn) [dehydrotrospium chloride, 3α-benziloyloxynortropane-8-spiro-1'-(3'-pyrrolinium)chloride]: the “broncholytic effectiveness compared with atropine and isoproterenol (in words)” value in test [1] (15 min after i.p. administration, equimolar dosages) is “comparable with or superior to the well known parasympatholytics atropine and the β-sympathomimetic isoproterenol”. Also, the EC50 in test [1] was found to be 1730 µg/mL. Besides, the “number of animals reacting” value in test [1] (setting [4]) turned out to be 3; in test [1] (setting [7]) it was 6; in test [1] (setting [8]) it was 6; in test [1] (setting [10]), 7. Moreover, the “probit analysis reaction % observed” value in test [1] (setting [5]) amounted to 30.00%; in test [1] (setting [6]), 66.67%; in test [1] (setting [9]), 60.00%; in test [1] (setting [11]), 70.00%. The “probit analysis reaction % calculated” value in test [1] (setting [5]) was 38.74%; in test [1] (setting [6]), 50.60%; in test [1] (setting [9]) it was 62.35%; in test [1] (setting [11]), 73.08%. For the same compound, the “broncholytic effect (in words)” value in test [1] (intraperitoneal, cholinergically-induced bronchial cramps, awake guinea pig) is “outstanding broncholytic effect”.
On to `CC(C)[N+]1(C)C2CCC1CC(OC(=O)C(CO)c1ccccc1)C2` (stereo not drawn) [ipratropium bromide, reference compound], for which the “EAmB/EAm ± s” value in test [2] is reported as 1.10 ± 0.24. The Kb in test [3] (antagonism against acetyl-β-methylcholine chloride, read-out: pA2 ± s (converted)) was 0.49 nM. Moreover, the “quality of the antagonism (in words)” value in test [3] (comparison of maximum effects in absence and presence of the antagonist) is “competitive antagonism”. Besides, the “antagonism against acetyl-β-methylcholine chloride / anticholinergic effectiveness (in words)” value in test [3] is listed as “comparable, dosage-dependent antagonism”; in test [3] (listed as epratropium bromide), “dosage dependent antagonism”.
For `CC(C)NCC(O)c1ccc(O)c(O)c1` (stereo not drawn) [isoproterenol, reference compound], the EC50 in test [1] (pre-treatment 3×10^-7 mol ml^-1 kg^-1 i.p., 15 min before inhalation, w of acetyl-β-methylcholine chloride in atomised solution, control animals w=0.000539, higher = more protection) came out at 1450 µg/mL (≈ 6.86 mM). Further, the “number of animals reacting” value in test [1] (setting [4]) amounted to 3; in test [1] (setting [7]) it was 5; in test [1] (setting [8]), 7; in test [1] (setting [10]), 8. The “probit analysis reaction % observed” value in test [1] (setting [5]) was 33.33%; in test [1] (setting [6]), 62.50%; in test [1] (setting [9]), 77.78%; in test [1] (setting [11]), 88.89%. Moreover, the “probit analysis reaction % calculated” value in test [1] (setting [5]) is given as 36.21%; in test [1] (setting [6]), 57.88%; in test [1] (setting [9]), 77.28%; in test [1] (setting [11]) it was 90.30%.
